Structures can show the parent of a compound that is named as a salt.
Key:
[1] = target: T1, Bromodomain BRD4 (1-477) (Homo sapiens, UniProt O60885); experiment: Time Resolved Fluorescence Resonance Energy Transfer (TR-FRET) binding assay, BRD4; settings: BRD4 100 nM, acetylated histone peptide 300 nM
T1 construct: Recombinant Human Bromodomains (BRD2 (1-473), BRD3 (1-435) and BRD4 (1-477)); made in house; host or cells: E. coli (pET15b vector)
Protocol: (§1) The binding of the compounds of formula (I) to Bromodomains BRD2, BRD3 and BRD4 was assessed using a time resolved fluorescent resonance energy transfer binding assay, that measures the binding of an acetylated histone peptide to the bromodomain protein.
(§2) The bromodomain protein, histone peptide and a variable concentration of test compound are incubated together to reach thermodynamic equilibrium.
(§3) • H-Ser-Gly-Arg-Gly-Lys(Ac)-Gly-Gly-Lys(Ac)-Gly-Leu-Gly-Lys(Ac)-Gly-Gly-Ala-Lys(Ac)-Arg-His-Gly-Ser-Gly-Ser-Lys(Biotin)-OH. 3TFA
(§4) Protein Production: Recombinant Human Bromodomains (BRD2 (1-473), BRD3 (1-435) and BRD4 (1-477)) were expressed in E. coli cells (in pET15b vector) with a six-His tag at the N-terminal. The His-tagged Bromodomain was extracted from E. coli cells using sonication and purified using a nickel sepharose 6FF column, the proteins were washed and then eluted with 50 mM Tris-Hcl pH8.0. 300 mM NaCl, 1 mM […] and 20 mM Imidazole. Further purification was performed by affinity chromatography on a HisTRAP HP column, eluting with a linear 0-500 mM sodium chloride gradient, over 20 column volumes. Final purification was completed by Superdex 200 prep grade size exclusion column. Purified protein was stored at −80 C in 20 mM HEPES pH 7.5 and 100 mM NaCl. Protein identity was confirmed by peptide mass fingerprinting and predicted molecular weight confirmed by mass spectrometry.
(§5) Protocol for Bromodomain BRD2, 3 and 4 Assays: All assay components were dissolved in buffer composition of 50 mM HEPES pH7.4, 50 mM NaCl and 0.5 mM CHAPS. The final concentration of bromodomain proteins were 100 nM and the histone peptide was 300 nM, these components are premixed and allowed to equilibrate for 1 hour in the dark. 8 μl of this reaction mixture was added to all wells containing 50 nl of various concentrations of test compound or DMSO vehicle (0.5% final) in Greiner 384 well black low volume microtitre plates and incubated in dark for 60 mins at room temperature. 2 μl of detection mixture containing anti-6his XL665 labeled antibody and streptavidin labeled with europium cryptate was added to all wells and a further dark incubation of at least 30 mins was performed. Plates were then read on the Envision platereader, (λex=317 nm, donor λEM=615 nm; acceptor λEM=665 nm; Dichroic LANCE dual). Time resolved fluorescent intensity measurements were made at both emission wavelengths and the ratio of acceptor/donor was calculated and used for data analysis. All data was normalized to the mean of 16 high and 16 low control wells on each plate. A four parameter curve fit of the following form was then applied: y=a+((b−a)/(1+(10^x/10^c)^d)
(§6) Where ‘a’ is the minimum, ‘b’ is the Hill slope, ‘c’ is the pIC50 and ‘d’ is the maximum.

[2] = target: T2, Bromodomain BRD2 (1-473) (Homo sapiens, UniProt P25440); experiment: Time Resolved Fluorescence Resonance Energy Transfer (TR-FRET) binding assay, BRD2; settings: BRD2 100 nM, acetylated histone peptide 300 nM
T2 construct: Recombinant Human Bromodomains (BRD2 (1-473), BRD3 (1-435) and BRD4 (1-477)); made in house; host or cells: E. coli (pET15b vector)
Protocol: as §1, §2, §3, §4, §5, §6

[3] = target: T3, Bromodomain BRD3 (1-435) (Homo sapiens, UniProt Q15059); experiment: Time Resolved Fluorescence Resonance Energy Transfer (TR-FRET) binding assay, BRD3; settings: BRD3 100 nM, acetylated histone peptide 300 nM
T3 construct: Recombinant Human Bromodomains (BRD2 (1-473), BRD3 (1-435) and BRD4 (1-477)); made in house; host or cells: E. coli (pET15b vector)
Protocol: as §1, §2, §3, §4, §5, §6

[4] = test system: LPS induced IL-6 secretion from whole blood; experiment: Measurement of LPS induced IL-6 secretion from whole blood; assay type: cell-based; settings: LPS 200 ng/ml, 24 hours, IL-6 by immunoassay
Protocol: Activation of monocytic cells by agonists of toll-like receptors such as bacterial lipopolysaccharide (LPS) results in production of key inflammatory mediators including IL-6. Such pathways are widely considered to be central to the pathophysiology of a range of auto-immune and inflammatory disorders.
Compounds to be tested are diluted to give a range of appropriate concentrations of which 1 μl of the diluted stocks is added to a 96 well plate. Following addition of whole blood (130 μl) the plates are incubated at 37 degrees (5% CO2) for 30 min before the addition of 10 μl of 2.8 ug/ml LPS, diluted in complete RPMI 1640 (final concentration=200 ng/ml), to give a total volume of 140 ul per well. After further incubation for 24 hours at 37 degrees, 140 μl of PBS are added to each well. The plates are sealed, shaken for 10 minutes and then centrifuged (2500 rpm×10 min). 100 μl of the supernatant are removed and IL-6 levels assayed by immunoassay (typically by MesoScale Discovery technology) either immediately or following storage at −20 degrees. Concentration response curves for each compound was generated from the data and an IC50 value was calculated.

T3 sequence (Q15059 1-435): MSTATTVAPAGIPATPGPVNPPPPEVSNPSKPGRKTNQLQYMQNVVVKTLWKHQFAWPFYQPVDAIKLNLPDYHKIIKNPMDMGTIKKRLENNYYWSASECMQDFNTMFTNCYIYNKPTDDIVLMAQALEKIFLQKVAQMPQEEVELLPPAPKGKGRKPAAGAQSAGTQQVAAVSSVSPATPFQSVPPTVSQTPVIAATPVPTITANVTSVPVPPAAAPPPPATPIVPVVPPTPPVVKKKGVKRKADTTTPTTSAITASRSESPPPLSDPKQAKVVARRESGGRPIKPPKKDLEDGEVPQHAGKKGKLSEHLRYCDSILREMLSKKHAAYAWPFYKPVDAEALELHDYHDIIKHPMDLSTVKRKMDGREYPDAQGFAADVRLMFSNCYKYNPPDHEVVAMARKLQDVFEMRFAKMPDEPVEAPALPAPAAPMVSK
T2 sequence (P25440 1-473): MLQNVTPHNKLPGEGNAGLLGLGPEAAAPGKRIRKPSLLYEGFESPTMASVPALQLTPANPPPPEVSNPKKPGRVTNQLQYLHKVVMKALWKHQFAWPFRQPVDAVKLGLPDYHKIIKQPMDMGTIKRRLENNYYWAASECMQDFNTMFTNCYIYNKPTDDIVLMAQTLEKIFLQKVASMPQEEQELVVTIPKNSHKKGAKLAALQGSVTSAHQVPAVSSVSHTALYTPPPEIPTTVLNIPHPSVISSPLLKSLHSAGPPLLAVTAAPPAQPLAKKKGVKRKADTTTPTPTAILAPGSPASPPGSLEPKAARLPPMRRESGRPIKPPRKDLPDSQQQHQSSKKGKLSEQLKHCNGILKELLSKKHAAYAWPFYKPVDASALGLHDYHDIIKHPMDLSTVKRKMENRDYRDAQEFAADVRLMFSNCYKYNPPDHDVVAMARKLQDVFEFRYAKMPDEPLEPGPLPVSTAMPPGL

Row | IC50 [1] [nM] | IC50 [2] [nM] | IC50 [3] [nM] | IC50 [4] [nM] | Structure (SMILES)
1 | 63.1 to 501 | 63.1 to 501 | 63.1 to 501 | 200 to 3160 | CC(=O)N1c2ccc(-c3ccc(C(=O)OCCCN(C)C)cc3)cc2[C@H](NC(=O)OC(C)C)C[C@@H]1C [Example 7, 3-(Dimethylamino)propyl 4-((2S,4R)-1-acetyl-4-((isopropoxycarbonyl)amino)-2-methyl-1,2,3,4-tetrahydroquinolin-6-yl)benzoate]
2 | 63.1 to 501 | 63.1 to 501 | 63.1 to 501 | 200 to 3160 | CC(=O)N1c2ccc(-c3ccc(C(=O)OCCN(C)C)cc3)cc2[C@H](Nc2ccc(Cl)cc2)C[C@@H]1C [Example 1, 2-(Dimethylamino)ethyl 4-((2S,4R)-1-acetyl-4-((4-chlorophenyl)amino)-2-methyl-1,2,3,4-tetrahydroquinolin-6-yl)benzoate hydrochloride]
3 | 63.1 to 501 | 63.1 to 501 | 63.1 to 501 | 200 to 3160 | CC(=O)N1c2ccc(-c3ccc(C(=O)OCC[N+](C)(C)C)cc3)cc2[C@H](Nc2ccc(Cl)cc2)C[C@@H]1C [Example 2, 2-((4-((2S,4R)-1-Acetyl-4-((4-chlorophenyl)amino)-2-methyl-1,2,3,4-tetrahydroquinolin-6-yl)benzoyl)oxy)-N,N,N-trimethylethanaminium, formate]
4 | 63.1 to 501 | 63.1 to 501 | 63.1 to 501 | 200 to 3160 | CC(=O)N1c2ccc(-c3ccc(C(=O)OCCN(C)C)cn3)cc2[C@H](Nc2ccc(C#N)cn2)C[C@@H]1C [Example 6, 2-(Dimethylamino)ethyl 6-((2S,4R)-1-acetyl-4-((5-cyanopyridin-2-yl)amino)-2-methyl-1,2,3,4-tetrahydroquinolin-6-yl)nicotinate]
5 | 63.1 to 501 | 63.1 to 501 | 63.1 to 501 |  | CC(=O)N1c2ccc(-c3ccc(C(=O)OCCCN(C)C)cc3)cc2[C@H](Nc2ccc(Cl)cc2)C[C@@H]1C [Example 4, 3-(Dimethylamino)propyl 4-((2S,4R)-1-acetyl-4-((4-chlorophenyl)amino)-2-methyl-1,2,3,4-tetrahydroquinolin-6-yl)benzoate]
6 | 63.1 to 501 | 63.1 to 501 | 63.1 to 501 | 200 to 3160 | CC(=O)N1c2ccc(-c3ccc(C(=O)OCCC[N+](C)(C)C)cc3)cc2[C@H](Nc2ccc(Cl)cc2)C[C@@H]1C [Example 3, 3-((4-((2S,4R)-1-Acetyl-4-((4-chlorophenyl)amino)-2-methyl-1,2,3,4-tetrahydroquinolin-6-yl)benzoyl)oxy)-N,N,N-trimethylpropan-1-aminium, formate]
7 | 63.1 to 501 | 63.1 to 501 | 63.1 to 501 | 200 to 3160 | CC(=O)N1c2ccc(-c3ccc(C(=O)OCCN(C)C)cc3)cc2[C@H](NC(=O)OC(C)C)C[C@@H]1C [Example 8, 2-(Dimethylamino)ethyl 4-((2S,4R)-1-acetyl-4-((isopropoxycarbonyl)amino)-2-methyl-1,2,3,4-tetrahydroquinolin-6-yl)benzoate]
8 | 63.1 to 501 | 63.1 to 501 | 63.1 to 501 | 200 to 3160 | CC(=O)N1c2ccc(-c3ccc(C(=O)OCCCN(C)C)cn3)cc2[C@H](Nc2ccc(C#N)cn2)C[C@@H]1C [Example 5, 3-(Dimethylamino)propyl 6-((2S,4R)-1-acetyl-4-((5-cyanopyridin-2-yl)amino)-2-methyl-1,2,3,4-tetrahydroquinolin-6-yl)nicotinate]

Source: patent US9029395B2, “Tetrahydroquinoline derivatives useful as bromodomain inhibitors” (GlaxoSmithKline LLC, priority 2011, dated 2015)
